Assay [1] has as its system lesions induced by kainic acid in the CA1 and CA3 regions of the hippocampus. Description: Neuroprotection in the CA1 and CA3 regions of the hippocampus (kainic acid lesions). The assay is classed as in vivo, rat. The following applies: single injection 20 mg/kg intraperitoneal 3 minutes before kainic acid 12 mg/kg i.p.; sacrifice 7 days later. As to the method:
The histopathological changes observed which are associated with administration of kainic acid differ from cerebral ischaemia caused by lesions that develop first in the CA1 to CA3 regions of the hippocampus (C. Montecot et al., Neuroscience 84, 791-800). The aim is to study the protective effect against lesions induced essentially in the CA3 region of the hippocampus while there is no reduction in the circulation of blood.
Kainic acid is administered intraperitoneally to a conscious rat in a dose of 12 mg/kg. The animal is then observed for a period of about 2 hours during which, after a latent period, epileptiform convulsions occur. At the end of 2 hours, the convulsions are stopped by administration of 10 mg/kg of diazepam. The animals are sacrificed 7 days later, their brains are isolated and 8 transverse sections 15 μm thick, spaced 150 μm apart, are prepared. These are analysed by contrast microscopy by two independent observers having no knowledge of the experimental groups. A rating of 0 to 3 is given according to the severity of the neuronal lesions. The ratings for each hemisphere are added together to obtain a lesion rating.
The product is administered in a dose of 20 mg/kg by the intraperitoneal route 3 minutes before administration of the kainic acid.

The subject of assay [2] is mouse model of neurodegeneration affecting both the cortical neurones and the subjacent white matter. Description: Neuroprotection in the cortex and white matter: excitotoxic lesions by intracerebral ibotenate or S-bromo-willardiine. The assay is classed as in vivo. The following applies: for Cortical lesions: lesion, μm / White matter lesions: lesion, μm: 10 mg/kg i.p. immediately after excitotoxic assault at P5, sacrifice at P10, averages; for size of the lesions in the white matter and in the cortex (neuroprotective effect): newborn Swiss mouse, test compound intraperitoneally after excitotoxic assault. On the procedure: The model used is a mouse model of neurodegeneration affecting both the cortical neurones and the subjacent white matter (S. L. Tahraoui et al., Brain Pathol., 2001, 11, 56-71). This model is based on an intracerebral injection of S-bromo-willardiine, a glutamatergic agonist that acts on AMPA-kainate receptors, or of ibotenate, an agonist of NMDA-type receptors, in the newborn mouse.
All the injections are carried out in the morning between 10.00 and 13.00 hours. The animals are anaesthetised in advance and kept under a heating lamp during the handling period. Each experimental group comprises from 5 to 12 Swiss mice of both sexes, from at least 2 different litters. On the 5th day of life (P5), 10 μg of ibotenate or 15 μg of S-bromo-willardiine are injected intracerebrally using a 25G gauge needle mounted on a 50 μl syringe, fixed to a calibrated device that delivers a bolus of 1 μl at each depression. The needle is inserted 2 mm below the cutaneous level, in the fronto-parietal region of the right hemisphere (2 mm in front of the lambdoid suture and 2 mm outside the median line). Two boluses of 1 μl (1 μl into the periventricular white matter and 1 μl into the cortex) are administered. An interval of 30 seconds, during which the needle remains in position, separates each bolus in order to allow diffusion of the product. Immediately after this excitotoxic assault, the test compound (3, 10 or 30 mg/kg) or the carrier is administered intraperitoneally (injected volume=5 μl). The animals are sacrificed by decapitation 5 days later (P10) and their brains are immediately removed and fixed in formol before being enclosed in paraffin. Series of 15 μm coronal sections are prepared for all the brains and stained with cresyl violet, which makes it possible to determine in a precise and reproducible manner the anterio-posterior axis of the histological lesions in both the cortex and the white matter. The sizes of the histological lesions are determined by two independent observers having no knowledge of the experimental groups. The results are expressed in the form of averages.

Assay [3] deals with transitory focal cerebral ischaemia. Description: Anti-ischaemic activity: transitory focal cerebral ischaemia by intraluminal occlusion. The following applies: adult male Wistar rat; 1 mg/kg intravenously 3 minutes before occlusion; occlusion 1 hour, reperfusion 23 hours. The assay is classed as in vivo. On the procedure:
The model used is a model of transitory focal cerebral ischaemia produced by intraluminal occlusion which mimics an embolic cerebral vascular accident in humans. The location of the infarction is cortical and subcortical (R. Bordet et al., J Cereb Blood Flow Metab. 20, 2000, 1190-1196 and 1999, 19, 1309-1345).
The model consists of a unilateral occlusion of the […] for 1 hour followed by reperfusion for 23 hours in an adult male Wistar rat. The aim of this experiment is to study the anti-ischaemic effect of the compounds of the invention.
The animals are anaesthetised for surgery with 300 mg/kg of chloral hydrate. For the duration of the surgery, their temperature is monitored and maintained at 37° C. using a temperature-controlled heating blanket.
The principal procedure is to stop the circulation of blood to the right middle cerebral artery (MCA) by intraluminal occlusion of the ostium. After 60 minutes, the occlusion is removed and the animals are replaced in their cage. After 24 hours the animals are sacrificed under anaesthetic. […]
The uncorrected infarcted zones and the total hemispheric zones are calculated separately for each section using an image analysis program. The corrected total volume of infarction is calculated in order to compensate for the effect of cerebral cedema. […]

The subject of assay [4] is primary cultures of cardiomyocytes. The assay can be described thus: Anti-apoptotic effect in primary cultures of cardiomyocytes (H2O2-induced apoptosis). The assay is classed as cell-based. The following applies: newborn rat cardiomyocytes; H2O2 0.075 mmol/liter for 30 minutes, then 24 hours culture. As to the method:
An in vitro study into an anti-apoptotic effect in primary cultures of cardiomyocytes was carried out by inducing apoptosis by adding hydrogen peroxide (H2O2). The free radicals produced induce apoptosis. This is similar to what is observed in ischaemia-reperfusion (R. Von Harsdorf, Circulation 99, 2934-2941). The cardiomyocytes are isolated from newborn rat hearts and are spread out at a density of 35 000 cells/cm^2. The process of apoptosis is induced by the addition of H2O2 (0.075 mmol/liter) for 30 minutes. The cardiomyocytes are then replaced in the culture medium for 24 hours. The apoptotic cells are visualised by various techniques, for example by the fragmentation of the genomic DNA that occurs in the process of apoptosis. […] The characteristic fragments of 180 bp of genomic DNA are detected by electrophoresis on agarose gel. The migration of phosphatidylserine (PS) from the inside of the membrane of the […] to the outside (externalisation) is an early indicator of apoptosis. This can be visualised by fluorescent labelling using annexin-V-FITC (fluorescein isothiocyanate) and quantified by comparison with the total number of cells.

Molecules are shown by their SMILES.

`COc1ccc(CN2CCN(Cc3ccccc3)CC2)c(OCCCCCCC(=O)O)c1OC.Cl.Cl` [Example 2, 7-{6-[(4-Benzyl-1-piperazinyl)methyl]-2,3-dimethoxyphenoxy}-heptanoic acid dihydrochloride]: the “protection of neurones of the CA1 and CA3 regions of the hippocampus against kainic acid lesions” value in assay [1] is “protects the neurones of the CA1 and CA3 regions of the hippocampus against lesions induced by kainic acid”. Further, in assay [2], the “Cortical lesions: lesion, μm” value worked out at 200 μm; the “White matter lesions: lesion, μm” value is 146.7 μm; the “size of the lesions in the white matter and in the cortex (neuroprotective effect)” value is “reduced the size of the lesions in the white matter and in the cortex”. Further, the “size of the infarction of the cortex and striatum” value in assay [3] was “reduced the size of the infarction of the cortex and striatum significantly”. Also, in assay [4], the cell survival entry was “increase” and the “percentage of cells undergoing apoptosis” value is “decrease”.

On to `COc1ccc(CN2CCNCC2)c(OC)c1OC` [TMZ, Trimetazidine, reference compound], for which, in assay [2], the “Cortical lesions: lesion, μm” value turned out to be 800 μm; the “White matter lesions: lesion, μm” value was determined as 320 μm; the “size of the lesions in the white matter and in the cortex (neuroprotective effect)” value is “very low neuroprotective effect”.
